The values that follow come from US12187717B2, “Compound and use thereof in treating autoimmune diseases” (PARENCHYMA BIOTECH INC., priority 2022, dated 2025).

The subject of one data set is IL-6. In words: IL-6 production of A549 epithelial cells by IL-1β stimulation. In kind it is cell-based, Human. As to conditions: A549, 5 μM, 48 hours then IL-1β 24 hours, vs control. As for the experimental part: In order to assess the inhibitory effects of production of IL-6 by the compounds of the present invention prepared as above, an IL-6 production test of epithelial cells by stimulation of IL-1β was performed.
After recovering A549 cells under culture in DMEM-fetal bovine serum (FBS) 10% medium and confirming that the survival rate is 97% or more through trypan blue staining, the recovered product was centrifuged at a speed of 1200 rpm for 5 minutes at room temperature, and the cells were prepared by resuspending them in DMEM-10% fetal bovine serum medium at 1×10^6 cells/3 ml. Thereafter, the cells were dispensed by 3 ml onto a 60 mm plate, and each dish was treated with 50 μl of Compounds 6, 9, 21, 32 and 39 at a concentration of 5 μM diluted in DMEM medium, and then cultured in a cell incubator (5% CO2 incubator) for 48 hours. Then, the cells were treated with 50 μl of human recombinant IL-1β at a concentration of 12.5 ng/ml diluted in DMEM medium, followed by culturing the same in a cell incubator (5% CO2 incubator) for 24 hours. As a control, 50 μl of 0.05% dimethylsulfoxide (DMSO)/DMEM medium was used for treatment.
(§1) The cultured cells were recovered to prepare an mRNA sample. […] From the separated RNA, cDNA was synthesized by reverse transcription, and the expression of CYP1A1 was confirmed through a real-time polymerase chain reaction (PCR) using iQ SYBR-Green Supermix (Bio-rad) in a CFX96 (Bio-rad) detection system. […] Herein, one (1) fold was set using the control.
(§2) The real-time polymerase chain reaction was performed under the conditions of 45 cycles at an annealing temperature of 58° C., wherein the following primer sequences were used.

Data set [1] deals with Foxp3-expressing regulatory T cells (Treg). The experiment in a line: Production of Foxp3-expressing regulatory T cells from naive CD4 T cells (flow cytometry). In kind it is cell-based, C57BL/6 mice. As to conditions: 2.5 μM, 3 days, compared to Vehicle. The procedure:
The spleen of C57BL/6 mice (8 to 12 weeks old, female) was excised, pulverized by adding RPMI medium, and then passed through a 40 μm cell strainer (BD Falcon), thereby obtaining a single cell suspension. The single cell suspension was centrifuged (1200 rpm, 5 minutes), and after discarding the supernatant, 1 ml of ACK lysis buffer was added, followed by stirring for 1 minute and then washing the same with RPMI medium. After the single cell suspension was centrifuged, T-cells were separated using a Mouse CD4 Naive T cell Enrichment Kit (Invitrogen). The separated T-cells were prepared by resuspending them in RPMI-fetal bovine serum (FBS) 10%+2-ME (mercaptoethanol) medium at 1×10^6/ml. For T-cell activation, 5 μg/ml anti-CD3 (eBioscience™) was dispensed by 100 μl onto a 96-well plate, reacted in a cell incubator (37° C., 5% CO2 incubator) for 4 hours, and washed with phosphate buffered saline to prepare the plate. The T-cells were dispensed by 200 μl onto the prepared plate, and each well was treated with 2 μg/ml of anti-CD28 (eBioscience™), 2 ng/ml of TGFβ-1 (R&D systems), and 100 U/ml of IL-2. Each 5 μl of Compounds 6 and 9 at a concentration of 2.5 μM diluted in RPMI-fetal bovine serum 10%+2-ME medium was used for treatment, followed by culturing the same in a cell incubator (37° C., 5% CO2 incubator) for 3 days. […]
In order to confirm the expression of Foxp3 protein, the recovered cells were placed in a 5 ml FACS tube (BD Falcon) and washed with 1 ml of phosphate buffered saline. […] The cells were washed twice with the Permeabilization buffer, suspended in 0.3 ml of FACS buffer, and measured by flow cytometry.
The promotion effects of Compound 6 and Comparative Example 1 on the production of “FoxP3-expressing regulatory T cells,” which play an important role in maintaining immune tolerance, were compared (FIG. 24). […] After 3 days, in order to confirm the effects of production of the regulatory T cells, the cultured cells were recovered and Foxp3 protein expression was measured in the same manner as in FIG. 4.
(In general: In flow cytometry, cells or beads pass a laser one at a time.)

In data set [2] the test system is CYP1A1. The experiment in a line: Induction of CYP1A1 mRNA expression in HepG2 (real-time PCR). In kind it is cell-based, Human. To be noted: HepG2, 1 μM, 24 hours, vs control (vehicle). The procedure:
In order to confirm target specificity of the compounds of an embodiment of the present invention prepared as above, it was confirmed whether the expression levels of CYP1A1 mRNA and CYP1A1 protein, which are AHR target genes, were increased.
After recovering HepG2 under culture in DMEM-fetal bovine serum (FBS) 10% medium and then confirming that the survival rate is 97% or more through trypan blue staining, the recovered product was centrifuged at a speed of 1200 rpm for 5 minutes at room temperature, and the cells were prepared by resuspending them in DMEM-fetal calf serum 10% medium at 3×10^5 cells/ml. Thereafter, the cells were dispensed onto a 60 mm dish by 3 ml, and each dish was treated with 50 μl of Compounds 6, 21, 32 and 39 at a concentration of 1 μM diluted in DMEM medium, and then cultured in a cell incubator (5% CO2 incubator) for 24 hours. As a control, 50 μl of 0.05% dimethylsulfoxide (DMSO)/DMEM medium was used for treatment.
as §1, §2
A general note: In qPCR the cycle at which signal appears reflects the starting amount.

The test system of data set [3] is CYP1A1. The experiment in a line: Induction of CYP1A1 protein expression in HepG2 (7-ethoxyresorufin/resorufin). It is filed as cell-based, Human. To be noted: HepG2, 1 μM, 24 hours, vs control (vehicle). The procedure: After recovering HepG2 under culture in DMEM-fetal bovine serum (FBS) 10% medium and then confirming that the survival rate is 97% or more through trypan blue staining, the recovered product was centrifuged at a speed of 1200 rpm for 5 minutes at room temperature, and the cells were prepared by resuspending them in DMEM-fetal calf serum 10% medium at 1.5×10^5 cells/ml.
Thereafter, the cells were dispensed onto a 96-well plate by 200 μl, and each plate was treated with 3 μl of Compounds 6, 21, 32 and 39 at a concentration of 1 μM diluted in DMEM medium, and then cultured in a cell incubator (5% CO2 incubator) for 24 hours. As a control, 3 μl of 0.05% dimethylsulfoxide (DMSO)/DMEM medium was used for treatment.
After 24 hours, the medium of the plate was discarded, washed with dPBS, treated with 100 μl of 2 μM 7-ethoxyresorufin, and cultured in a cell incubator (5% CO2 incubator) for 30 minutes. After 30 minutes, each 75 μl of fluorescamine (150 μg/ml) was treated, then resorufine excitation was measured at 535 nm and emission at 590 nm. The standard curve was measured and used with 0 to 50 pmol of resorufin solution.
After measurement, all solutions were removed, followed by treating the same with 25 μl of 0.5 M sodium hydroxide (NaOH), the cells were scraped and reacted in a shaker at room temperature for 15 minutes.
After 15 minutes, protein was quantified using a Bradford method, and a value was obtained using a calculation formula (sample resorufin amount/sample protein amount), and then one (1) fold was set using the control.

Another data set has as its target CYP2C19 (Homo sapiens, UniProt P33261). In words: CYP isoenzyme activity. In kind it is in vitro ADME. To be noted: 0.1 μM.
Another data set has as its target CYP2C9 (Homo sapiens, UniProt P11712). In words: CYP isoenzyme activity. It is filed as in vitro ADME. To be noted: 0.1 μM.
For a further data set, the target named is T1, CYP1A2 (Homo sapiens, UniProt P05177).
T1 sequence (P05177 1-516): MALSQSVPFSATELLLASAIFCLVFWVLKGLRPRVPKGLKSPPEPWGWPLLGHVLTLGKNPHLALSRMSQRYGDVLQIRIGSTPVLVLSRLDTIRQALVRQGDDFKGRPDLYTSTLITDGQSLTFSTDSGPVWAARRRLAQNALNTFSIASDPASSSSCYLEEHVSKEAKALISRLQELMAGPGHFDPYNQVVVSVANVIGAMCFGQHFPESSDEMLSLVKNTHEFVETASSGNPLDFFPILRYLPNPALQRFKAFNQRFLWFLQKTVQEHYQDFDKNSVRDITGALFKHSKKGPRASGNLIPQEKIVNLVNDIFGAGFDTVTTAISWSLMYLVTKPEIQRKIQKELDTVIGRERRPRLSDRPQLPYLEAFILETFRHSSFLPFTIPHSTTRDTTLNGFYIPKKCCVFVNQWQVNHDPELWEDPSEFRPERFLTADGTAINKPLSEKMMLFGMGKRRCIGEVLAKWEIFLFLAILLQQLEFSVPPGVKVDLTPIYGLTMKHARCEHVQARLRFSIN
The experiment in a line: CYP isoenzyme activity. It is filed as in vitro ADME. To be noted: 0.1 μM.

CYP2C9, sequence (P11712 whole entry): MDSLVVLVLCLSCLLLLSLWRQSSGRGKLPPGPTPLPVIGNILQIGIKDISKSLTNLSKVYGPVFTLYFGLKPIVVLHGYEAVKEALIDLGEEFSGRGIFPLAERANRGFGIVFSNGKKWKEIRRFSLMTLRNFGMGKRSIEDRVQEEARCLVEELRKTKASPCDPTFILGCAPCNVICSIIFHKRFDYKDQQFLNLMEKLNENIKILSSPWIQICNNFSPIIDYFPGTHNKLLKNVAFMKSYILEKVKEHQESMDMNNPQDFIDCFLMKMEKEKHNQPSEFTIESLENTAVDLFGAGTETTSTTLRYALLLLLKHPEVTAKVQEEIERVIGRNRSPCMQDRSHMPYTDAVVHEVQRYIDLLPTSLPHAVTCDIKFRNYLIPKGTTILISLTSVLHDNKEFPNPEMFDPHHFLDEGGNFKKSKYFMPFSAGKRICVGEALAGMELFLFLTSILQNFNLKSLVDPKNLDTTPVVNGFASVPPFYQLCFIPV
CYP2C19, sequence (P33261 whole entry): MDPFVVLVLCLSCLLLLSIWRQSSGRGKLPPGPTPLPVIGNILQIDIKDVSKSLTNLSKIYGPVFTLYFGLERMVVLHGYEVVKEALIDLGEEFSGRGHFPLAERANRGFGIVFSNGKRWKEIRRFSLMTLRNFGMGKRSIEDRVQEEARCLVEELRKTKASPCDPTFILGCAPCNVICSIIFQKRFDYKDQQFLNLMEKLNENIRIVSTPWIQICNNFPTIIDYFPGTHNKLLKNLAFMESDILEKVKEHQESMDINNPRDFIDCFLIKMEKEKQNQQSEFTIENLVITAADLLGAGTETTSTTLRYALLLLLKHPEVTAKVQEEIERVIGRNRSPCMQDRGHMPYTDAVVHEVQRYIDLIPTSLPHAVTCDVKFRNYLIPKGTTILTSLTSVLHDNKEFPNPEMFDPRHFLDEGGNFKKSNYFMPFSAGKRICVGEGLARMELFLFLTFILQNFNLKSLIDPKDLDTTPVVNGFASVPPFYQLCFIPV

With `CN1CCN(c2ccc3nc(NC(=O)Cc4c[nH]c5ccc(Cl)cc45)sc3c2)CC1` [Compound 9, 2-(5-chloro-1H-indol-3-yl)-N-(6-(4-methylpiperazine-1-yl)benzo[d]thiazol-2-yl)acetamide], in the data set on IL-6, the “IL-6 production of A549 by IL-1β stimulation” value (“IL-6 production of A549” below) is given as “significantly reduced”. In addition, the “production of Foxp3-expressing regulatory T cells” value in data set [1] was “markedly increased”.
Regarding `Cn1cc(CC(=O)Nc2nc3ccc(N4CCOCC4)cc3s2)c2cc(Cl)ccc21` [Compound 21, 2-(5-chloro-1-methyl-1H-indol-3-yl)-N-(6-morpholinobenzo[d]thiazol-2-yl)acetamide], in the data set on CYP1A1 [2], the “CYP1A1 mRNA expression level” value is listed as “significantly induced”. Besides, in the data set with IL-6, the “IL-6 production of A549” value was “significantly reduced”. For the same compound, in the data set on CYP1A1 [3], the “CYP1A1 protein expression level” value is “significantly higher”.
For the compound `COc1ccc2[nH]cc(CC(=O)Nc3nc4ccc(N5CCOCC5)cc4s3)c2c1` [Compound 39, 2-(5-methoxy-1H-indol-3-yl)-N-(6-morpholinobenzo[d]thiazol-2-yl)acetamide], the “CYP1A1 mRNA expression level” value in the data set on CYP1A1 [2] is reported as “significantly induced”. Besides, the “IL-6 production of A549” value in the data set on IL-6 is “significantly reduced”. Also, the “CYP1A1 protein expression level” value in the data set on CYP1A1 [3] is “significantly higher”.
`O=C(Cc1c[nH]c2ccc(O)cc12)Nc1nc2ccc(N3CCOCC3)cc2s1` [Compound 32, 2-(5-hydroxy-1H-indol-3-yl)-N-(6-morpholinobenzo[d]thiazol-2-yl)acetamide]: the “CYP1A1 mRNA expression level” value in the data set with CYP1A1 [2] is given as “significantly induced”. Also, the “IL-6 production of A549” value in the data set on IL-6 is listed as “significantly reduced”. Moreover, the “CYP1A1 protein expression level” value in the data set on CYP1A1 [3] is “significantly higher”.
With `CC(=O)N1CCN(c2ccc(OCC3COC(Cn4ccnc4)(c4ccc(Cl)cc4Cl)O3)cc2)CC1` (centres unmarked) [Ketoconazole], the CYP2C19 activity on CYP2C19 is 96.7 % of Control Activity. Besides, the CYP2C9 activity on CYP2C9 is given as 98.6 % of Control Activity. Further, the CYP1A2 activity on CYP1A2 is given as 95.4 % of Control Activity.
